The values below come from patent publication US7431953B2, “Skin preparation for external use containing Purpuricenus temminckii frass as the active ingredient” (Nihon University, priority 2002, dated 2008).

In this test the test system is rat-derived basophils (RBL-2H3). The test is described as follows: β-Hexosaminidase release-inhibition assay. The test is classed as cell-based. As to conditions: antigen (DNP-BSA)-stimulated RBL-2H3; FIG. 7, FIG. 8. The method, then:
The assay principle of the β-hexosaminidase release assay is as follows:
β-hexosaminidase is a glycolytic enzyme, and is one of the lysosome enzymes occurring abundantly in granules of mast cells.
In the β-hexosaminidase release assay, p-nitrophenyl phosphate is separated due to the presence of this enzyme. The separated p-nitrophenyl phosphate is determined by a photometric method (405 nm), and the result is set as the β-hexosaminidase enzyme activity.
The effect of inhibiting β-hexosaminidase release was evaluated using the anti-allergic effect test that uses as an index β-hexosaminidase released from the rat-derived basophils (RBL-2H3).
RBL-2H3 cells were cultured (5% carbon dioxide, 37° C.) in an Eagle minimum essential medium containing 10% fetal calf serum (FCS), 100 units/mL penicillin and 100 μg/mL streptomycin. Then, the cells were plated to a 24-well flat-bottomed microplate for cell culture at 2.5×10^5 cells/well ([…] medium/well). By culturing for 24 hours (5% carbon dioxide, 37° C.), the cells were sensitized. The sensitized cells were then washed once in 500 μl of PBF, and 160 μl of the siraganian buffer containing 5.6 mM glucose, 1 mM calcium chloride and 0.1% BSA was added. A sample solution at each concentration and 20 μl of the test substance solution (DMSO: 0.1%) were added, and ten minutes later the antigen (DNP-BSA: 10 μg/mL) was added and incubated for 10 minutes to stimulate the cells. After stopping the reaction by cooling with ice for 10 minutes, 50 μl of the supernatant was transferred to a 96-well flat-bottomed microtiter plate, to which 100 μl of the enzyme reaction was added and mixed. After determining absorbance of the mixture by a microplate reader, the release ratio was determined by the following equation (measurement wavelength: 405 nm, reference wavelength: 655 nm). β-hexosaminidase release ratio (%)=[amount of β-hexosaminidase released by stimulation/amount of total intracellular β-hexosaminidase]×100
Total intracellular β-hexosaminidase was determined using the supernatant obtained by centrifuging the cells disrupted by an ultrasonic disruption instrument.
Turning to `CC[C@H](CC[C@@H](C)[C@H]1CCC2[C@@H]3CCC4=CC(=O)CC[C@]4(C)C3CC[C@@]21C)C(C)C` (stereo partly shown) [stigmast-4-en-3-one], the “Effect of inhibiting β-hexosaminidase release” value was “roughly confirmed”.

In the case of `CC[C@H](CC[C@@H](C)[C@H]1CC[C@H]2[C@@H]3CC(=O)C4=CC(=O)CC[C@]4(C)[C@H]3CC[C@]12C)C(C)C` [stigmast-4-ene-3,6-dione], the “Effect of inhibiting β-hexosaminidase release” value is reported as “roughly confirmed”.

In the case of `c1ccc2c(c1)[I+]c1ccccc1-2` [DPI, reference compound], the “Effect of inhibiting β-hexosaminidase release” value is recorded as “inhibited, in a concentration-dependent manner”.

Turning to `CC[C@H](/C=C/[C@@H](C)[C@H]1CCC2[C@@H]3CCC4=CC(=O)CC[C@]4(C)C3CC[C@@]21C)C(C)C` (stereo partly shown) [stigmasta-4,22-dien-3-one], the “Effect of inhibiting β-hexosaminidase release” value is “roughly confirmed”.
